Laboratory results taken from patent US12441742B2, “Naphthyridine compounds as inhibitors of KRAS” (Incyte Corporation, priority 2021, dated 2025).

How the values were obtained:
KRAS G12V = KRAS G12V (Homo sapiens, UniProt P01116, G12V); test: KRAS_G12V GDP-GTP exchange assay (bodipy-GDP/GppNHp, SOS1); format: biochemical; conditions: bodipy loaded KRAS G12V 2.5 nM, 3 hours incubation after GppNHp-SOS1; read-out: G12V_exchange (KRAS_G12V exchange assay IC50)
Description: (§1) The inhibitor potency of the exemplified compounds was determined in a fluorescence based guanine nucleotide exchange assay, which measures the exchange of bodipy-GDP (fluorescently labeled GDP) for GppNHp (Non-hydrolyzable GTP analog) to generate the active state of KRAS in the presence of SOS1 (guanine nucleotide exchange factor). Inhibitors were serially diluted in DMSO and a volume of 0.1 μL was transferred to the wells of a black low volume 384-well plate. 5 μL/well volume of bodipy-loaded KRAS G12D diluted to 2.5 nM in assay buffer (25 mM Hepes pH 7.5, 50 mM NaCl, 10 mM MgCl2 and 0.01% Brij-35) was added to the plate and pre-incubated with inhibitor for 4 hours at ambient temperature. Appropriate controls (enzyme with no inhibitor or with a G12D inhibitor) were included on the plate. The exchange was initiated by the addition of a 5 μL/well volume containing 1 mM GppNHp and 300 nM SOS1 in assay buffer. The 10 μL/well reaction concentration of the bodipy-loaded KRAS G12D, GppNHp, and SOS1 were 2.5 nM, 500 uM, and 150 nM, respectively. The reaction plates were incubated at ambient temperature for 2 hours, a time estimated for complete GDP-GTP exchange in the absence of inhibitor. For the KRAS G12V mutant, similar guanine nucleotide exchange assays were used with 2.5 nM as final concentration for the bodipy loaded KRAS proteins and 3 hours incubation after adding GppNHp-SOS1 mixture. A cyclic peptide described to selectively bind G12D mutant (Sakamoto et al., BBRC 484.3 (2017), 605-611) or internal compounds with confirmed binding were used as positive controls in the assay plates. Fluorescence intensities were measured on a PheraStar plate reader instrument (BMG Labtech) with excitation at 485 nm and emission at 520 nm.
(§2) Either GraphPad prism or XLfit was used to analyze the data. The IC50 values were derived by fitting the data to a four parameter logistic equation producing a sigmoidal dose-response curve with a variable Hill coefficient. Prism equation: Y=Bottom+(Top−Bottom)/(1+10^((Log IC50−X)*Hill slope)); XLfit equation: Y=(A+((B−A)/(1+((X/C)^D)))) where X is the logarithm of inhibitor concentration and Y is the response.

KRAS G12D [1] = molecular target: T1, KRAS G12D (Homo sapiens, UniProt P01116, G12D); test: KRAS_G12D GDP-GTP exchange assay (bodipy-GDP/GppNHp, SOS1); format: biochemical; conditions: bodipy-loaded KRAS G12D 2.5 nM, 4 hours pre-incubation, 2 hours exchange; for IC50: read-out: G12D_exchange (KRAS_G12D exchange assay IC50)
T1 sequence (P01116 1-188 isoform P01116-2 G12D): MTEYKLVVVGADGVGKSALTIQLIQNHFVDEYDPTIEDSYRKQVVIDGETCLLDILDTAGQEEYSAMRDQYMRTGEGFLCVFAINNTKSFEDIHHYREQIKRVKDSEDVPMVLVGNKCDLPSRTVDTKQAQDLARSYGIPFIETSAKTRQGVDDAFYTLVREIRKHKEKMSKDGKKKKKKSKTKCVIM
Description: as §1, §2

KRAS G12D [2] = molecular target: T1, KRAS G12D; test: KRAS_G12D cellular pERK HTRF assay; format: cell-based; set-up: CRL-1997; host or cells: A427 or HPAF-II; conditions: KRAS G12D cells (A427, HPAF-II), 2 hours; read-out: G12D_pERK (KRAS_G12D pERK assay IC50)
Description: MIA PaCa-2 (KRAS G12C; ATCC® CRL-1420), A427 (KRAS G12D; ATCC® HTB53), HPAF-II (KRAS G12D; ATCC® CRL-1997) and NCI-H838 (KRAS WT; ATCC® CRL-5844) cells are purchased from ATCC and maintained in RPMI 1640 media supplemented with 10% FBS (Gibco/Life Technologies). The cells are plated at 5000 cells per well (8 uL) into Greiner 384-well low volume, flat-bottom, tissue culture treated white plates and incubated overnight at 37° C., 5% CO2. The next morning, test compound stock solutions are diluted in media at 3x the final concentration, and 4 uL are added to the cells. The plate is mixed by gentle rotation for 30 seconds (250 rpm) at room temperature. The cells are incubated with the KRAS G12C and G12D compounds for 4 hours or 2 hours respectively at 37° C., 5% CO2.
4 uL of 4x lysis buffer with blocking reagent (1:25) (Cisbio) are added to each well and plates are rotated gently (300 rpm) for 30 minutes at room temperature. 4 uL per well of Cisbio anti Phospho-ERK 1/2 d2 is mixed with anti Phospho-ERK 1/2 Cryptate (1:1) are added to each well, mixed by rotation and incubated overnight in the dark at room temperature. Plates are read on the Pherastar plate reader at 665 nm and 620 nm wavelengths. IC50 determination is performed by fitting the curve of inhibitor percent inhibition versus the log of the inhibitor concentration using the GraphPad Prism 7 software.

Chain of KRAS G12V (P01116 1-188 isoform P01116-2 G12V): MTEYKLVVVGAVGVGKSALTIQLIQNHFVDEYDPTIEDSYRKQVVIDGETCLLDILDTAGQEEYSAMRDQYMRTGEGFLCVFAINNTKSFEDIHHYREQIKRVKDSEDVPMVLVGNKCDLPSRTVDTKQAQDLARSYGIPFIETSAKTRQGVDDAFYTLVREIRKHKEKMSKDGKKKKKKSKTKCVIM

Compound	IC50 (KRAS G12V) [nM]	IC50 (KRAS G12D [1]) [nM]	IC50 (KRAS G12D [2]) [nM]	G12D_exchange (KRAS_G12D exchange assay IC50) (KRAS G12D [1])
COC(=O)CCc1cc2c(OC[C@@]34CCCN3C[C@H](F)C4)nc3c(F)c(-c4cc(O)cc5ccccc45)ncc3c2n1C1C2CNC1C2 (single isomer, unassigned) [Example 2a]	100 to 1000	–	1000 to 5000	†
Cc1nc2c(nc(N3CC(N(C)C)C3)c3nc(CCC(=O)N(C)C)n([C@@H]4[C@@H]5CN[C@H]4C5)c32)c(C)c1-c1cc(O)cc2ccccc12 (relative stereo) [Example 16, 3-(1-((endo)-2-azabicyclo[2.1.1]hexan-5-yl)-4-(3-(dimethylamino)azetidin-1-yl)-7-(3-hydroxynaphthalen-1-yl)-6,8-dimethyl-1H-imidazo[4,5-c][1,5]naphthyridin-2-yl)-N,N-dimethylpropanamide]	–	1000 to 5000	–	–
CN(C)C(=O)CCc1nc2c(N3CC(N(C)C)C3)nc3c(F)c(-c4cccc5c4C(C#N)CC5)ncc3c2n1C1C2CNC1C2 (single isomer, unassigned) [Example 10b, 3-(1-((endo)-2-azabicyclo[2.1.1]hexan-5-yl)-7-(3-cyano-2,3-dihydro-1H-inden-4-yl)-4-(3-(dimethylamino)azetidin-1-yl)-6-fluoro-1H-imidazo[4,5-c][1,6]naphthyridin-2-yl)-N,N-dimethylpropanamide]	–	1000 to 5000	–	–
COC(=O)N1CCC[C@@H]1c1cc2c(N3CC(C)(N(C)C)C3)nc3c(F)c(-c4cccc(Cl)c4Cl)ncc3c2n1[C@H]1[C@H]2CN[C@@H]1C2 [Example 22, Methyl (R)-2-(1-((1R,4R,5S)-2-azabicyclo[2.1.1]hexan-5-yl)-7-(2,3-dichlorophenyl)-4-(3-(dimethylamino)-3-methylazetidin-1-yl)-6-fluoro-1H-pyrrolo[3,2-c][1,6]naphthyridin-2-yl)pyrrolidine-1-carboxylate]	100 to 1000	–	–	†
C[C@H](Oc1nc2c(F)c(-c3cc(O)cc4ccccc34)ncc2c2c1nc(CCC(=O)N(C)C)n2C1C2CNC1C2)[C@@H]1CCCN1C (single isomer, unassigned) [Example 9b]	≤ 100	–	–	†
CN(C)C(=O)CCc1nc2c(N3CC(N(C)C)C3)nc3cc(-c4cc(O)cc5ccccc45)c(CCC#N)nc3c2n1C1C2CNC1C2 (single isomer, unassigned) [Example 17a, 3-(1-((endo)-2-azabicyclo[2.1.1]hexan-5-yl)-8-(2-cyanoethyl)-4-(3-(dimethylamino)azetidin-1-yl)-7-(3-hydroxynaphthalen-1-yl)-1H-imidazo[4,5-c][1,5]naphthyridin-2-yl)-N,N-dimethylpropanamide]	1000 to 5000	–	–	†
Cc1nc2c(F)c(-c3cc(O)cc4ccccc34)ncc2c2c1cc(CN1CCOC1=O)n2[C@@H]1[C@@H]2CN[C@H]1C2 (relative stereo) [Example 5, 3-((1-((endo)-2-azabicyclo[2.1.1]hexan-5-yl)-6-fluoro-7-(3-hydroxynaphthalen-1-yl)-4-methyl-1H-pyrrolo[3,2-c][1,6]naphthyridin-2-yl)methyl)oxazolidin-2-one]	1000 to 5000	100 to 1000	–	–
CNC(=O)c1cccc(-c2nc3c(F)c(-c4cccc(C)c4Cl)ncc3c3c2cc([C@H]2CCCN2C(=O)OC)n3[C@H]2[C@H]3CN[C@@H]2C3)n1 [Example 24, Methyl (R)-2-(1-((1R,4R,5S)-2-azabicyclo[2.1.1]hexan-5-yl)-7-(2-chloro-3-methylphenyl)-6-fluoro-4-(6-(methylcarbamoyl)pyridin-2-yl)-1H-pyrrolo[3,2-c][1,6]naphthyridin-2-yl)pyrrolidine-1-carboxylate]	5000 to 10000	–	–	†

More lines, now with the values ahead:

IC50 (KRAS G12V) [nM]	IC50 (KRAS G12D [1]) [nM]	IC50 (KRAS G12D [2]) [nM]	G12D_exchange (KRAS_G12D exchange assay IC50) (KRAS G12D [1])	Compound
1000 to 5000	100 to 1000	–	–	Cc1cc2c(O[C@@H](C)[C@@H]3CCCN3C)nc3c(F)c(N4CCc5ccccc54)ncc3c2n1C1C2CNC1C2 (single isomer, unassigned) [Example 8b]
100 to 1000	–	1000 to 5000	†	C[C@H](Oc1nc2c(F)c(N3CCCc4ccccc43)ncc2c2c1cc(CN1CCOC1=O)n2C1C2CNC1C2)[C@@H]1CCCN1C (single isomer, unassigned) [Example 7a]
≤ 100	–	–	†	CC(=O)N1CCC[C@@H]1c1cc2c(O[C@@H](C)[C@@H]3CCCN3C)nc3c(F)c(-c4cccc5scnc45)ncc3c2n1[C@H]1[C@H]2CN[C@@H]1C2 [Example 19, 1-((R)-2-(7-(Benzo[d]thiazol-4-yl)-1-((1R,4R,5S)-2-azabicyclo[2.1.1]hexan-5-yl)-6-fluoro-4-((S)-1-((S)-1-methylpyrrolidin-2-yl)ethoxy)-1H-pyrrolo[3,2-c][1,6]naphthyridin-2-yl)pyrrolidin-1-yl)ethan-1-one]
–	100 to 1000	–	–	C[C@H](Oc1nc2c(F)c(-c3c[nH]c4ccc(F)cc34)ncc2c2c1cc(CN1CCOC1=O)n2C1C2CNC1C2)[C@@H]1CCCN1C (single isomer, unassigned) [Example 6a]
≤ 100	–	–	†	COC(=O)N1CCC[C@@H]1c1cc2c(O[C@@H](C)[C@@H]3CCCN3C)nc3c(F)c(-c4cccc(Cl)c4Cl)ncc3c2n1[C@H]1[C@H]2CN[C@@H]1C2 [Example 23, Methyl (R)-2-(1-((1R,4R,5S)-2-azabicyclo[2.1.1]hexan-5-yl)-7-(2,3-dichlorophenyl)-6-fluoro-4-((S)-1-((S)-1-methylpyrrolidin-2-yl)ethoxy)-1H-pyrrolo[3,2-c][1,6]naphthyridin-2-yl)pyrrolidine-1-carboxylate]
100 to 1000	–	–	†	Cc1cc2c(O[C@@H](C)[C@@H]3CCCN3C)nc3c(F)c(N4CCc5ccccc54)ncc3c2n1C1C2CNC1C2 (single isomer, unassigned) [Example 8a]
≤ 100	–	–	†	Cc1cc2c(O[C@@H](C)[C@@H]3CCCN3C)nc3c(F)c(-c4cc(O)cc5ccc(F)cc45)ncc3c2n1[C@H]1[C@H]2CN[C@@H]1C2 [Example 18, 4-(1-((1R,4R,5S)-2-Azabicyclo[2.1.1]hexan-5-yl)-6-fluoro-2-methyl-4-((S)-1-((S)-1-methylpyrrolidin-2-yl)ethoxy)-1H-pyrrolo[3,2-c][1,6]naphthyridin-7-yl)-6-fluoronaphthalen-2-ol]
≤ 100	–	–	†	C[C@H](Oc1nc2c(F)c(-c3cccc4c3OCCC4)ncc2c2c1cc([C@@H](C)n1ccccc1=O)n2[C@H]1[C@H]2CN[C@@H]1C2)[C@@H]1CCCN1C [Example 21, 1-((R)-1-(1-((1R,4R,5S)-2-Azabicyclo[2.1.1]hexan-5-yl)-7-(chroman-8-yl)-6-fluoro-4-((S)-1-((S)-1-methylpyrrolidin-2-yl)ethoxy)-1H-pyrrolo[3,2-c][1,6]naphthyridin-2-yl)ethyl)pyridin-2(1H)-one]
≤ 100	–	–	†	C[C@H](Oc1nc2c(F)c(-c3cccc4c3OCCC4)ncc2c2c1cc(C1CCc3cccc(=O)n31)n2[C@H]1[C@H]2CN[C@@H]1C2)[C@@H]1CCCN1C (single isomer, unassigned) [Example 20a]
